Tested on: mouse primary cortical neurons, thapsigargin death, survival counting
Test: ER stress death suppression in cortical neurons – imaging, mouse primary cortical neurons, immunostaining, death counting, ER stress cell death inhibitors, late-stage follow-up (AID 1386)
Conditions: at 25 µM

Compound `COc1ccc(C2CC(=O)C3=C(C2)Nc2ccccc2NC3c2cccc(Oc3ccccc3)c2)cc1OC` (configuration not stated) has a survival (stronger effect = higher value) of 87% and a survival (measured here: survival without thapsigargin) of 91%.

— PubChem BioAssay AID1386 (Sanford-Burnham Center for Chemical Genomics, 2008)
